test system: beta-TC6 cells; assay: Insulin HTRF assay (relative activity Ar) in beta-TC6 cells; type: cell-based, mouse; conditions: Mus musculus, Beta-TC6, 4 h, insulin HTRF, supernatant of beta-TC6 cells, incubation with test compound at 37°C for 2, 3, 4h; read-out: Ar (relative activity)
Method in brief: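 beta-TC6 cells (15k/well, seeded 24 or 48 h) washed, then exposed to compound in induction buffer (0.5% DMSO final) for 2, 3 or 4 h at 37°C.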

Compound	Emax [%]
COc1ccc(Nc2cc3c(cn2)cc(-c2cccnc2)n3C)c(OC)c1 [Compound 83, N-(2,4-dimethoxyphenyl)-1-methyl-2-(3-pyridyl)pyrrolo[3,2-c]pyridin-6-amine]	50 to 100
Cn1c(-c2cccnc2)cc2cnc(Nc3ccc4c(c3)OCCO4)cc21 [Compound 84, N-(2,3-dihydro-1,4-benzodioxin-6-yl)-1-methyl-2-(3-pyridyl)pyrrolo[3,2-c]pyridin-6-amine]	50 to 100
COc1ccc(Nc2cc3c(cn2)cc(-c2cccnc2)n3C)cc1OC [Compound 85, N-(3,4-dimethoxyphenyl)-1-methyl-2-(3-pyridyl)pyrrolo[3,2-c]pyridin-6-amine]	50 to 100
COc1ccc(Nc2cc3c(cn2)cc(-c2cccnc2)n3C)cn1 [Compound 86, N-(6-methoxy-3-pyridyl)-1-methyl-2-(3-pyridyl)pyrrolo[3,2-c]pyridin-6-amine]	50 to 100
Cn1c(-c2cccnc2)cc2cnc(Nc3cccnc3)cc21 [Compound 87, 1-methyl-N,2-bis(3-pyridyl)pyrrolo[3,2-c]pyridin-6-amine]	50 to 100
Cn1c(-c2cccnc2)cc2cnc(Nc3ccccc3)cc21 [Compound 88, 1-methyl-N-phenyl-2-(3-pyridyl)pyrrolo[3,2-c]pyridin-6-amine]	30 to 50
CN(C)c1cccc(Nc2cc3c(cn2)cc(-c2cccnc2)n3C)c1 [Compound 89, N1,N1-dimethyl-N3-[1-methyl-2-(3-pyridyl)pyrrolo[3,2-c]pyridin-6-yl]benzene-1,3-diamine]	50 to 100
Cc1cccc(Nc2cc3c(cn2)cc(-c2cccnc2)n3C)c1 [Compound 90, 1-methyl-N-(m-tolyl)-2-(3-pyridyl)pyrrolo[3,2-c]pyridin-6-amine]	30 to 50
COc1ccc(Nc2cc3c(cn2)cc(-c2cccnc2)n3C)cc1 [Compound 91, N-(4-methoxyphenyl)-1-methyl-2-(3-pyridyl)pyrrolo[3,2-c]pyridin-6-amine]	50 to 100
Cn1c(-c2cccnc2)cc2cnc(Nc3ccc(F)cc3)cc21 [Compound 92, N-(4-fluorophenyl)-1-methyl-2-(3-pyridyl)pyrrolo[3,2-c]pyridin-6-amine]	0 to 30
Cn1c(-c2cccnc2)cc2cnc(Nc3ccc4c(c3)OCO4)cc21 [Compound 93, N-(1,3-benzodioxol-5-yl)-1-methyl-2-(3-pyridyl)pyrrolo[3,2-c]pyridin-6-amine]	50 to 100
Cn1c(-c2cccnc2)cc2cnc(N3CCOCC3)cc21 [Compound 94, 4-[1-methyl-2-(3-pyridyl)pyrrolo[3,2-c]pyridin-6-yl]morpholine]	30 to 50
CN(C)C(=O)c1ccc(Nc2cc3c(cn2)cc(-c2cccnc2)n3C)cc1 [Compound 95, N,N-dimethyl-4-[[1-methyl-2-(3-pyridyl)pyrrolo[3,2-c]pyridin-6-yl]amino]benzamide]	50 to 100
CC(=O)Nc1cccc(Nc2cc3c(cn2)cc(-c2cccnc2)n3C)c1 [Compound 96, N-[3-[[1-methyl-2-(3-pyridyl)pyrrolo[3,2-c]pyridin-6-yl]amino]phenyl]acetamide]	50 to 100
CC(=O)c1cccc(Nc2cc3c(cn2)cc(-c2cccnc2)n3C)c1 [Compound 97, 1-[3-[[1-methyl-2-(3-pyridyl)pyrrolo[3,2-c]pyridin-6-yl]amino]phenyl]ethanone]	30 to 50
c1ccc(Cn2c(-c3cccnc3)cc3cnc(Nc4ccccn4)cc32)cc1 [Compound 98, 1-benzyl-N-(2-pyridyl)-2-(3-pyridyl)pyrrolo[3,2-c]pyridin-6-amine]	30 to 50
c1ccc(Cn2c(-c3cccnc3)cc3cnc(Nc4ccncn4)cc32)cc1 [Compound 99, 1-benzyl-2-(3-pyridyl)-N-pyrimidin-4-yl-pyrrolo[3,2-c]pyridin-6-amine]	30 to 50
COc1cc(Nc2cc3[nH]c(-c4cncn4C)cc3cn2)cc(OC)c1OC [Compound 100, 2-(3-methylimidazol-4-yl)-N-(3,4,5-trimethoxyphenyl)-1H-pyrrolo[3,2-c]pyridin-6-amine]	> 100
COc1cccc(Nc2cc3[nH]c(-c4cncn4C)cc3cn2)c1 [Compound 101, N-(3-methoxyphenyl)-2-(3-methylimidazol-4-yl)-1H-pyrrolo[3,2-c]pyridin-6-amine]	50 to 100
COc1ccc(Nc2cc3[nH]c(-c4cncn4C)cc3cn2)cc1OC [Compound 102, N-(3,4-dimethoxyphenyl)-2-(3-methylimidazol-4-yl)-1H-pyrrolo[3,2-c]pyridin-6-amine]	> 100
Cn1cncc1-c1cc2cnc(Nc3cccc(Cl)c3)cc2[nH]1 [Compound 103, N-(3-chlorophenyl)-2-(3-methylimidazol-4-yl)-1H-pyrrolo[3,2-c]pyridin-6-amine]	30 to 50
CN(C)c1cccc(Nc2cc3[nH]c(-c4cncn4C)cc3cn2)c1 [Compound 104, N1,N1-dimethyl-N3-[2-(3-methylimidazol-4-yl)-1H-pyrrolo[3,2-c]pyridin-6-yl]benzene-1,3-diamine]	50 to 100

Compound	Emax [%]
Cc1cccc(Nc2cc3[nH]c(-c4cncn4C)cc3cn2)c1 [Compound 105, 2-(3-methylimidazol-4-yl)-N-(m-tolyl)-1H-pyrrolo[3,2-c]pyridin-6-amine]	50 to 100
Cn1cncc1-c1cc2cnc(Nc3ccc(F)cc3)cc2[nH]1 [Compound 106, N-(4-fluorophenyl)-2-(3-methylimidazol-4-yl)-1H-pyrrolo[3,2-c]pyridin-6-amine]	50 to 100
CC(=O)c1cccc(Nc2cc3[nH]c(-c4cncn4C)cc3cn2)c1 [Compound 107, 1-[3-[[2-(3-methylimidazol-4-yl)-1H-pyrrolo[3,2-c]pyridin-6-yl]amino]phenyl]ethanone]	50 to 100
Cn1cncc1-c1cc2cnc(Nc3cccc(F)c3)cc2[nH]1 [Compound 108, N-(3-fluorophenyl)-2-(3-methylimidazol-4-yl)-1H-pyrrolo[3,2-c]pyridin-6-amine]	50 to 100
CC(C)Oc1ccc(Nc2cc3[nH]c(-c4cncn4C)cc3cn2)cc1 [Compound 109, N-(4-isopropoxyphenyl)-2-(3-methylimidazol-4-yl)-1H-pyrrolo[3,2-c]pyridin-6-amine]	50 to 100
COc1cccc(Nc2cc3[nH]c(-c4cn[nH]c4)cc3cn2)c1 [Compound 110, N-(3-methoxyphenyl)-2-(1H-pyrazol-4-yl)-1H-pyrrolo[3,2-c]pyridin-6-amine]	> 100
COc1ccc(Nc2cc3[nH]c(-c4cn[nH]c4)cc3cn2)cc1OC [Compound 111, N-(3,4-dimethoxyphenyl)-2-(1H-pyrazol-4-yl)-1H-pyrrolo[3,2-c]pyridin-6-amine]	> 100
CN(C)c1cccc(Nc2cc3[nH]c(-c4cn[nH]c4)cc3cn2)c1 [Compound 112, N1,N1-dimethyl-N3-[2-(1H-pyrazol-4-yl)-1H-pyrrolo[3,2-c]pyridin-6-yl]benzene-1,3-diamine]	50 to 100
Cc1cccc(Nc2cc3[nH]c(-c4cn[nH]c4)cc3cn2)c1 [Compound 113, N-(m-tolyl)-2-(1H-pyrazol-4-yl)-1H-pyrrolo[3,2-c]pyridin-6-amine]	50 to 100
Fc1ccc(Nc2cc3[nH]c(-c4cn[nH]c4)cc3cn2)cc1 [Compound 114, N-(4-fluorophenyl)-2-(1H-pyrazol-4-yl)-1H-pyrrolo[3,2-c]pyridin-6-amine]	50 to 100
c1ccc(Nc2cc3[nH]c(-c4cn[nH]c4)cc3cn2)nc1 [Compound 115, 2-(1H-pyrazol-4-yl)-N-(2-pyridyl)-1H-pyrrolo[3,2-c]pyridin-6-amine]	> 100
COc1cc(Nc2cc3[nH]c(-c4cn[nH]c4)cc3cn2)cc(C(F)(F)F)c1 [Compound 116, N-[3-methoxy-5-(trifluoromethyl)phenyl]-2-(1H-pyrazol-4-yl)-1H-pyrrolo[3,2-c]pyridin-6-amine]	0 to 30
CC(=O)Nc1cccc(Nc2cc3[nH]c(-c4cn[nH]c4)cc3cn2)c1 [Compound 117, N-[3-[[2-(1H-pyrazol-4-yl)-1H-pyrrolo[3,2-c]pyridin-6-yl]amino]phenyl]acetamide]	> 100
CC(=O)c1cccc(Nc2cc3[nH]c(-c4cn[nH]c4)cc3cn2)c1 [Compound 118, 1-[3-[[2-(1 H-pyrazol-4-yl)-1H-pyrrolo[3,2-c]pyridin-6-yl]amino]phenyl]ethanone]	> 100
Fc1cccc(Nc2cc3[nH]c(-c4cn[nH]c4)cc3cn2)c1 [Compound 119, N-(3-fluorophenyl)-2-(1H-pyrazol-4-yl)-1H-pyrrolo[3,2-c]pyridin-6-amine]	50 to 100
CS(=O)(=O)c1ccc(Nc2cc3[nH]c(-c4cn[nH]c4)cc3cn2)cc1 [Compound 120, N-(4-methylsulfonylphenyl)-2-(1H-pyrazol-4-yl)-1H-pyrrolo[3,2-c]pyridin-6-amine]	> 100
CC(=O)Nc1ccc(Nc2cc3[nH]c(-c4cnn(C)c4)cc3cn2)cc1 [Compound 121, N-[4-[[2-(1-methylpyrazol-4-yl)-1H-pyrrolo[3,2-c]pyridin-6-yl]amino]phenyl]acetamide]	> 100
Cn1cc(-c2cc3cnc(Nc4ccc5c(c4)OCCO5)cc3[nH]2)cn1 [Compound 122, N-(2,3-dihydro-1,4-benzodioxin-6-yl)-2-(1-methylpyrazol-4-yl)-1H-pyrrolo[3,2-c]pyridin-6-amine]	30 to 50
COc1ccc(Nc2cc3[nH]c(-c4cnn(C)c4)cc3cn2)cc1OC [Compound 123, N-(3,4-dimethoxyphenyl)-2-(1-methylpyrazol-4-yl)-1H-pyrrolo[3,2-c]pyridin-6-amine]	> 100
CC(=O)c1cccc(Nc2cc3[nH]c(-c4cnn(C)c4)cc3cn2)c1 [Compound 124, 1-[3-[[2-(1-methylpyrazol-4-yl)-1H-pyrrolo[3,2-c]pyridin-6-yl]amino]phenyl]ethanone]	> 100
COc1cc(Nc2cc3c(cn2)cc(-c2cnn(C)c2)n3C)cc(OC)c1OC [Compound 125, 1-methyl-2-(1-methylpyrazol-4-yl)-N-(3,4,5-trimethoxyphenyl)pyrrolo[3,2-c]pyridin-6-amine]	> 100

Source: patent EP2818472A1, “Imidazo[4,5-c]pyridine and pyrrolo[3,2-c]pyridine compounds as G-protein-coupled receptor kinase 5 (GRK5) modulators” (Max-Planck-Gesellschaft zur Förderung der Wissenschaften …, priority 2013, dated 2014)
